{"source": "patent US5112740A", "about": "“Carbon dioxide assay for body fluids comprising carbonic anhydrase” (Eastman Kodak Company, priority 1989, dated 1992)", "key": {"carbonic anhydrase [1]": {"tested_on": "carbonic anhydrase", "test": "Carbonic anhydrase inhibitors tested against hemolysate bias on the enzymatic CO2 slide (Example 3)", "type": "biochemical, human", "details": "for Enzymatic Bicarbonate With Hemolysate: hemoglobin 200 mg/dL, 1 hour room temperature; for Bias: with vs without hemolysate (hemoglobin 200 mg/dL)", "protocol": "(§1) A stock hemolysate solution was prepared by collecting fresh blood from suitable human donors. The erythrocytes of the blood was pooled, and then washed with saline four times. The erythrocytes were then lysed by five cycles of freezing to -70° C. and thawing at 37° C. The resulting hemolysate was filtered through Whatman No. 1 (Whatman Ltd. UK) filter paper. Hemoglobin concentration in mg/dL was determined by the method of Harboe described in Sca. J. Clinical Lab. Invest. […] The concentration of hemoglobin is directly related to the level of carbonic anhydrase in the hemolysate stock solution.\nThe enzymatic values for CO2 were determined on the test samples with dry-chemistry slides on an […] Clinical Chemistry Analyzer (available from Eastman Kodak Company, Rochester, N.Y.). The principle of the assay is as represented above by reaction series (1) and (5). […] It had the following format:\nA stock solution of 50 mmol/L bicarbonate was prepared in 100 mmol/L tricine buffer (pH 8.0)."}, "carbonic anhydrase [2]": {"tested_on": "carbonic anhydrase", "details": "acetazolamide included in the enzymatic CO2 dry chemistry element", "protocol": "as §1"}, "carbonic anhydrase [3]": {"tested_on": "carbonic anhydrase", "method": "Reference values for CO2 (Table I) on test samples were determined using a thermal conductivity procedure on the Corning 965 carbon dioxide analyzer. The technology of the reference procedure is such that it is not affected by carbonic anhydrase.\nThe enzymatic values for CO2 were determined on the test samples with dry-chemistry slides on an [sequence] Clinical Chemistry Analyzer (available from Eastman Kodak Company, Rochester, N.Y.). The principle of the assay is as represented above by reaction series (1) and (5). […] It had the following format:\nA stock solution of 50 mmol/L bicarbonate was prepared in 100 mmol/L tricine buffer (pH 8.0). The stock bicarbonate was diluted with either (a) the buffer or (b) the stock hemolysate and the buffer to give test solutions of about 25 mmol/L HCO3^- and varying concentrations of hemoglobin."}, "carbonic anhydrase [4]": {"tested_on": "carbonic anhydrase", "details": "solution assay"}, "[5]": {"details": "final inhibitor concentration 20.0 mmol/L"}, "[6]": {"details": "final inhibitor concentration 1.0 mmol/L"}, "[7]": {"details": "final inhibitor concentration 2.5 mmol/L"}, "[8]": {"details": "final inhibitor concentration 5.0 mmol/L"}, "[9]": {"details": "final inhibitor concentration 2.0 mmol/L"}}}
{"smiles": "CC(N)C(=O)O", "note": "(racemic) [DL-Alanine]", "values": [{"measurement": "Enzymatic Bicarbonate With Hemolysate", "setting": "carbonic anhydrase [1]; [5]", "result": 14.3, "unit": "mmol/L"}, {"measurement": "Bias", "setting": "carbonic anhydrase [1]; [5]", "result": -8.6, "unit": "mmol/L"}]}
{"smiles": "CC(=O)Nc1nnc(S(N)(=O)=O)s1", "note": "[Acetazolamide]", "values": [{"measurement": "Effectiveness in eliminating the negative bias of the enzymatic CO2 assay", "setting": "carbonic anhydrase [1]; among the carbonic anhydrase inhibitors tested", "result": "most effective"}, {"measurement": "Enzymatic Bicarbonate With Hemolysate", "setting": "carbonic anhydrase [1]; [6]", "result": 22.9, "unit": "mmol/L"}, {"measurement": "Bias", "setting": "carbonic anhydrase [1]; [6]", "result": -0.3, "unit": "mmol/L"}, {"measurement": "Effect on bias seen with hemolyzed and apparently non-hemolysed patient samples", "setting": "carbonic anhydrase [2]", "result": "effectively eliminates the bias"}, {"measurement": "Effect on bias seen with freshly prepared hemolysates", "setting": "carbonic anhydrase [3]; acetazolamide included in the enzymatic CO2 dry chemistry element", "result": "significantly reduces the bias"}, {"measurement": "Effectiveness when included in the reagent layer", "setting": "carbonic anhydrase [3]; reagent layer compared with spreading layer", "result": "equally as effective"}, {"measurement": "Minimum concentration effective as an inhibitor", "setting": "carbonic anhydrase [4]", "result": "at least 0.1 mmol/L"}]}
{"smiles": "[N-]=[N+]=[N-]", "note": "[Azide]", "values": [{"measurement": "Enzymatic Bicarbonate With Hemolysate", "setting": "carbonic anhydrase [1]; [7]", "result": 16.5, "unit": "mmol/L"}, {"measurement": "Bias", "setting": "carbonic anhydrase [1]; [7]", "result": -6.8, "unit": "mmol/L"}]}
{"smiles": "O[C@H](CS)[C@@H](O)CS", "note": "[Dithioerythritol]", "values": [{"measurement": "Enzymatic Bicarbonate With Hemolysate", "setting": "carbonic anhydrase [1]; [8]", "result": 17.5, "unit": "mmol/L"}, {"measurement": "Bias", "setting": "carbonic anhydrase [1]; [8]", "result": -5.8, "unit": "mmol/L"}]}
{"smiles": "O=C(O)CN(CCN(CC(=O)O)CC(=O)O)CC(=O)O", "note": "[EDTA, Ethylenediaminetetraacetic acid]", "values": [{"measurement": "Enzymatic Bicarbonate With Hemolysate", "setting": "carbonic anhydrase [1]; [8]", "result": 14.7, "unit": "mmol/L"}, {"measurement": "Bias", "setting": "carbonic anhydrase [1]; [8]", "result": -8.1, "unit": "mmol/L"}]}
{"smiles": "NCC(=O)O", "note": "[Glycine]", "values": [{"measurement": "Enzymatic Bicarbonate With Hemolysate", "setting": "carbonic anhydrase [1]; [5]", "result": 14.3, "unit": "mmol/L"}, {"measurement": "Bias", "setting": "carbonic anhydrase [1]; [5]", "result": -8.1, "unit": "mmol/L"}]}
{"smiles": "O=C(O)CN(CCO)CCN(CC(=O)O)CC(=O)O", "note": "[HEDTA, NHydroxyethylethylenediaminetriacetic acid]", "values": [{"measurement": "Enzymatic Bicarbonate With Hemolysate", "setting": "carbonic anhydrase [1]; [8]", "result": 15.7, "unit": "mmol/L"}, {"measurement": "Bias", "setting": "carbonic anhydrase [1]; [8]", "result": -7.6, "unit": "mmol/L"}]}
{"smiles": "Nc1ccc(S(N)(=O)=O)cc1", "note": "[Sulfanilamide]", "values": [{"measurement": "Enzymatic Bicarbonate With Hemolysate", "setting": "carbonic anhydrase [1]; [9]", "result": 14.9, "unit": "mmol/L"}, {"measurement": "Bias", "setting": "carbonic anhydrase [1]; [9]", "result": -7.9, "unit": "mmol/L"}]}
{"smiles": "Nc1ccc(S(=O)(=O)Nc2nccs2)cc1", "note": "[Sulfathiazole]", "values": [{"measurement": "Enzymatic Bicarbonate With Hemolysate", "setting": "carbonic anhydrase [1]; [9]", "result": 15.8, "unit": "mmol/L"}, {"measurement": "Bias", "setting": "carbonic anhydrase [1]; [9]", "result": -8.4, "unit": "mmol/L"}]}
{"smiles": "N#CS", "note": "[Thiocyanate]", "values": [{"measurement": "Enzymatic Bicarbonate With Hemolysate", "setting": "carbonic anhydrase [1]; [7]", "result": 15.3, "unit": "mmol/L"}, {"measurement": "Bias", "setting": "carbonic anhydrase [1]; [7]", "result": -6.7, "unit": "mmol/L"}]}
